Source: PubChem BioAssay (NCI)
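Dose response: 5 concentrations. Exposure: 48 h. Format: 96-well plates. Endpoint: linear interpolation; highest concentration if not reached. The concentration for full growth arrest is given as TGI.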

Assays:
Experiment in all cases: growth of human tumour cells (NCI), 48 h
786-0 renal = tested on: 786-0 renal
A498 renal = tested on: A498 renal
ACHN renal = tested on: ACHN renal
BT-549 breast = tested on: BT-549 breast
CAKI-1 renal = tested on: CAKI-1 renal
CCRF-CEM leukemia = tested on: CCRF-CEM leukemia
COLO 205 colon = tested on: COLO 205 colon
EKVX NSCLC = tested on: EKVX NSCLC
HCT-116 colon = tested on: HCT-116 colon
HCT-15 colon = tested on: HCT-15 colon
HL-60(TB) leukemia = tested on: HL-60(TB) leukemia
HOP-62 NSCLC = tested on: HOP-62 NSCLC
HOP-92 NSCLC = tested on: HOP-92 NSCLC
HS 578T breast = tested on: HS 578T breast
HT29 colon = tested on: HT29 colon
IGROV1 ovarian = tested on: IGROV1 ovarian
K-562 leukemia = tested on: K-562 leukemia
KM12 colon = tested on: KM12 colon
LOX IMVI melanoma = tested on: LOX IMVI melanoma
MALME-3M melanoma = tested on: MALME-3M melanoma
MDA-MB-231 breast = tested on: MDA-MB-231 breast
MDA-MB-435 = tested on: MDA-MB-435
MDA-N = tested on: MDA-N
MOLT-4 leukemia = tested on: MOLT-4 leukemia
NCI-H226 lung = tested on: NCI-H226 lung
NCI-H23 lung = tested on: NCI-H23 lung
NCI-H460 lung = tested on: NCI-H460 lung
NCI-H522 lung = tested on: NCI-H522 lung
NCI/ADR-RES ovarian = tested on: NCI/ADR-RES ovarian
OVCAR-3 ovarian = tested on: OVCAR-3 ovarian
OVCAR-4 ovarian = tested on: OVCAR-4 ovarian
OVCAR-5 ovarian = tested on: OVCAR-5 ovarian
OVCAR-8 ovarian = tested on: OVCAR-8 ovarian
PC-3 prostate = tested on: PC-3 prostate
RPMI-8226 leukemia = tested on: RPMI-8226 leukemia
RXF 393 renal = tested on: RXF 393 renal
SF-268 CNS = tested on: SF-268 CNS
SF-295 CNS = tested on: SF-295 CNS
SF-539 CNS = tested on: SF-539 CNS
SK-MEL-2 melanoma = tested on: SK-MEL-2 melanoma
SK-MEL-28 melanoma = tested on: SK-MEL-28 melanoma
SK-MEL-5 melanoma = tested on: SK-MEL-5 melanoma
SK-OV-3 ovarian = tested on: SK-OV-3 ovarian
SN12C renal = tested on: SN12C renal
SNB-19 CNS = tested on: SNB-19 CNS
SNB-75 CNS = tested on: SNB-75 CNS
SR leukemia = tested on: SR leukemia
SW-620 colon = tested on: SW-620 colon
T-47D breast = tested on: T-47D breast
TK-10 renal = tested on: TK-10 renal
U251 CNS = tested on: U251 CNS
UACC-257 melanoma = tested on: UACC-257 melanoma
UACC-62 melanoma = tested on: UACC-62 melanoma
UO-31 renal = tested on: UO-31 renal
A549 NSCLC = tested on: A549 NSCLC
DU-145 prostate = tested on: DU-145 prostate
HCC-2998 colon = tested on: HCC-2998 colon
M14 melanoma = tested on: M14 melanoma
MCF7 breast = tested on: MCF7 breast

Q: What does the source list for `CCCC(=O)Nc1cc(/C=C/C(=O)N2CC(CCl)c3c2cc(OCc2ccccc2)c2[nH]cc(C)c32)n(C)c1` (stereo not drawn)?
A: TGI (786-0 renal): 2890 nM; TGI (A498 renal): 1140 nM; TGI (ACHN renal): 83.3 nM; TGI (BT-549 breast): 3.14 µM; TGI (CAKI-1 renal): 2090 nM; TGI (CCRF-CEM leukemia): 244 nM; TGI (COLO 205 colon): 1220 nM; TGI (EKVX NSCLC): 635 nM; TGI (HCT-116 colon): 225 nM; TGI (HCT-15 colon): 930 nM; TGI (HL-60(TB) leukemia): 260 nM; TGI (HOP-62 NSCLC): 453 nM; TGI (HOP-92 NSCLC): 213 nM; TGI (HS 578T breast): 468 nM; TGI (HT29 colon): 488 nM; TGI (IGROV1 ovarian): > 25 µM; TGI (K-562 leukemia): 904 nM; TGI (KM12 colon): 602 nM; TGI (LOX IMVI melanoma): 6.71 µM; TGI (MALME-3M melanoma): 353 nM; TGI (MDA-MB-231 breast): > 25 µM; TGI (MDA-MB-435): 918 nM; TGI (MDA-N): 1670 nM; TGI (MOLT-4 leukemia): 610 nM; TGI (NCI-H226 lung): 941 nM; TGI (NCI-H23 lung): 65.4 nM; TGI (NCI-H460 lung): 58.8 nM; TGI (NCI-H522 lung): 26.7 nM; TGI (NCI/ADR-RES ovarian): 182 nM; TGI (OVCAR-3 ovarian): 512 nM; TGI (OVCAR-4 ovarian): 889 nM; TGI (OVCAR-5 ovarian): 1220 nM; TGI (OVCAR-8 ovarian): 202 nM; TGI (PC-3 prostate): > 13.1 µM; TGI (RPMI-8226 leukemia): 1300 nM; TGI (RXF 393 renal): 85.2 nM; TGI (SF-268 CNS): 907 nM; TGI (SF-295 CNS): 334 nM; TGI (SF-539 CNS): 165 nM; TGI (SK-MEL-2 melanoma): 218 nM; TGI (SK-MEL-28 melanoma): 1540 nM; TGI (SK-MEL-5 melanoma): 131 nM; TGI (SK-OV-3 ovarian): > 25 µM; TGI (SN12C renal): > 25 µM; TGI (SNB-19 CNS): 24.6 µM; TGI (SNB-75 CNS): 381 nM; TGI (SR leukemia): 72.2 nM; TGI (SW-620 colon): > 25 µM; TGI (T-47D breast): 1700 nM; TGI (TK-10 renal): 2470 nM; TGI (U251 CNS): > 9.21 µM; TGI (UACC-257 melanoma): 868 nM; TGI (UACC-62 melanoma): 93.4 nM; TGI (UO-31 renal): 215 nM

Q: How did the TGI (786-0 renal) turn out when `Cc1cc(O)c2c(c1O)C(=O)c1cccc(O)c1C2=O` was run?
A: > 100000 nM

Q: What about the TGI (A549 NSCLC) of the same molecule?
A: > 100 µM

Q: And the TGI (ACHN renal)?
A: > 100000 nM

Q: What about the TGI (BT-549 breast) of the same molecule?
A: > 100 µM

Q: And the TGI (CAKI-1 renal)?
A: > 100000 nM

Q: What about the TGI (CCRF-CEM leukemia) of the same molecule?
A: > 100000 nM

Q: And the TGI (DU-145 prostate)?
A: > 100 µM

Q: What about the TGI (EKVX NSCLC) of the same molecule?
A: > 100000 nM

Q: What about the TGI (HCC-2998 colon) of the same molecule?
A: > 100 µM

Q: What about the TGI (HCT-116 colon) of the same molecule?
A: > 100000 nM

Q: And the TGI (HCT-15 colon)?
A: > 100000 nM

Q: What about the TGI (HL-60(TB) leukemia) of the same molecule?
A: > 100000 nM

Q: And the TGI (HOP-62 NSCLC)?
A: > 100000 nM

Q: What about the TGI (HOP-92 NSCLC) of the same molecule?
A: > 100000 nM

Q: And the TGI (HS 578T breast)?
A: > 100000 nM

Q: What about the TGI (HT29 colon) of the same molecule?
A: > 100000 nM

Q: What about the TGI (IGROV1 ovarian) of the same molecule?
A: > 100 µM

Q: And the TGI (K-562 leukemia)?
A: > 100000 nM

Q: What about the TGI (KM12 colon) of the same molecule?
A: > 100000 nM

Q: And the TGI (LOX IMVI melanoma)?
A: > 100 µM

Q: And the TGI (M14 melanoma)?
A: > 100 µM

Q: What about the TGI (MCF7 breast) of the same molecule?
A: > 100 µM

Q: What about the TGI (MDA-MB-231 breast) of the same molecule?
A: > 100 µM

Q: What about the TGI (MDA-MB-435) of the same molecule?
A: > 100000 nM

Q: And the TGI (MDA-N)?
A: > 100000 nM

Q: And the TGI (NCI-H226 lung)?
A: > 100000 nM

Q: And the TGI (NCI-H23 lung)?
A: > 100000 nM

Q: What about the TGI (NCI-H460 lung) of the same molecule?
A: > 100000 nM

Q: What about the TGI (NCI-H522 lung) of the same molecule?
A: > 100000 nM

Q: And the TGI (NCI/ADR-RES ovarian)?
A: > 100000 nM

Q: And the TGI (OVCAR-3 ovarian)?
A: > 100000 nM

Q: And the TGI (OVCAR-4 ovarian)?
A: > 100000 nM

Q: And the TGI (OVCAR-5 ovarian)?
A: > 100000 nM

Q: And the TGI (OVCAR-8 ovarian)?
A: > 100000 nM

Q: And the TGI (PC-3 prostate)?
A: > 100 µM

Q: And the TGI (RPMI-8226 leukemia)?
A: > 100000 nM

Q: And the TGI (RXF 393 renal)?
A: > 100000 nM

Q: What about the TGI (SF-268 CNS) of the same molecule?
A: > 100000 nM

Q: And the TGI (SF-295 CNS)?
A: > 100000 nM

Q: What about the TGI (SF-539 CNS) of the same molecule?
A: > 100000 nM

Q: And the TGI (SK-MEL-2 melanoma)?
A: > 100000 nM

Q: What about the TGI (SK-MEL-28 melanoma) of the same molecule?
A: > 100000 nM

Q: What about the TGI (SK-MEL-5 melanoma) of the same molecule?
A: > 100000 nM

Q: And the TGI (SK-OV-3 ovarian)?
A: > 100 µM

Q: And the TGI (SN12C renal)?
A: > 100 µM

Q: And the TGI (SNB-19 CNS)?
A: > 100 µM

Q: What about the TGI (SNB-75 CNS) of the same molecule?
A: > 100000 nM

Q: And the TGI (SW-620 colon)?
A: > 100 µM

Q: What about the TGI (T-47D breast) of the same molecule?
A: > 100000 nM

Q: What about the TGI (TK-10 renal) of the same molecule?
A: > 100000 nM

Q: And the TGI (U251 CNS)?
A: > 100 µM

Q: What about the TGI (UACC-257 melanoma) of the same molecule?
A: > 100000 nM

Q: And the TGI (UACC-62 melanoma)?
A: > 100000 nM

Q: What about the TGI (UO-31 renal) of the same molecule?
A: > 100000 nM
